Results from PubChem BioAssay (NCI).
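A five-concentration, 48-hour dose response in 96-well plates underlies each endpoint, interpolated linearly between surrounding concentrations. GI50 = concentration required for 50% inhibition of growth. At the TGI there is no net growth.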

Tests used:
Assay in all cases: growth of human tumour cells (NCI), 48 h
HS 578T breast = system: HS 578T breast
NCI-H460 lung = system: NCI-H460 lung
MALME-3M melanoma = system: MALME-3M melanoma
DMS 273 small cell lung = system: DMS 273 small cell lung
CCRF-CEM leukemia = system: CCRF-CEM leukemia
A549 NSCLC = system: A549 NSCLC
MDA-MB-231 breast = system: MDA-MB-231 breast
HCT-15 colon = system: HCT-15 colon
SF-539 CNS = system: SF-539 CNS
OVCAR-8 ovarian = system: OVCAR-8 ovarian
SF-295 CNS = system: SF-295 CNS
NCI-H522 lung = system: NCI-H522 lung
SR leukemia = system: SR leukemia
OVCAR-3 ovarian = system: OVCAR-3 ovarian
IGROV1 ovarian = system: IGROV1 ovarian
SNB-75 CNS = system: SNB-75 CNS
SK-MEL-28 melanoma = system: SK-MEL-28 melanoma
OVCAR-5 ovarian = system: OVCAR-5 ovarian
LOX IMVI melanoma = system: LOX IMVI melanoma
DLD-1 colon = system: DLD-1 colon
CAKI-1 renal = system: CAKI-1 renal
LXFL 529 NSCLC = system: LXFL 529 NSCLC
XF 498 CNS = system: XF 498 CNS
EKVX NSCLC = system: EKVX NSCLC
DMS 114 small cell lung = system: DMS 114 small cell lung
KM12 colon = system: KM12 colon
HL-60(TB) leukemia = system: HL-60(TB) leukemia
UO-31 renal = system: UO-31 renal
PC-3 prostate = system: PC-3 prostate
SN12C renal = system: SN12C renal
MCF7 breast = system: MCF7 breast
T-47D breast = system: T-47D breast
COLO 205 colon = system: COLO 205 colon
MDA-MB-435 = system: MDA-MB-435
U251 CNS = system: U251 CNS
HCT-116 colon = system: HCT-116 colon
NCI-H226 lung = system: NCI-H226 lung
786-0 renal = system: 786-0 renal
M14 melanoma = system: M14 melanoma
TK-10 renal = system: TK-10 renal
OVCAR-4 ovarian = system: OVCAR-4 ovarian
RPMI-8226 leukemia = system: RPMI-8226 leukemia
SW-620 colon = system: SW-620 colon
ACHN renal = system: ACHN renal
DU-145 prostate = system: DU-145 prostate
MOLT-4 leukemia = system: MOLT-4 leukemia
A498 renal = system: A498 renal
SF-268 CNS = system: SF-268 CNS
SNB-19 CNS = system: SNB-19 CNS
M19-MEL melanoma = system: M19-MEL melanoma
KM20L2 colon = system: KM20L2 colon
HOP-62 NSCLC = system: HOP-62 NSCLC
NCI/ADR-RES ovarian = system: NCI/ADR-RES ovarian
SK-MEL-5 melanoma = system: SK-MEL-5 melanoma
RXF 393 renal = system: RXF 393 renal
SK-MEL-2 melanoma = system: SK-MEL-2 melanoma
RXF-631 renal = system: RXF-631 renal
HOP-92 NSCLC = system: HOP-92 NSCLC
UACC-257 melanoma = system: UACC-257 melanoma
K-562 leukemia = system: K-562 leukemia
HT29 colon = system: HT29 colon
HCC-2998 colon = system: HCC-2998 colon
UACC-62 melanoma = system: UACC-62 melanoma
SK-OV-3 ovarian = system: SK-OV-3 ovarian
SNB-78 CNS = system: SNB-78 CNS
NCI-H23 lung = system: NCI-H23 lung

In the case of `CC(CN1CCN(CC(C)Nc2ccnc3cc(Cl)ccc23)CC1)Nc1ccnc2cc(Cl)ccc12` (stereo not drawn), the GI50 (HS 578T breast) is reported as 2550 nM, the TGI (HS 578T breast) is reported as 9.69 µM and the TGI (NCI-H460 lung) is reported as 14.3 µM. It also gave a TGI (MALME-3M melanoma) of 26.5 µM, a TGI (DMS 273 small cell lung) of 29.8 µM and a TGI (CCRF-CEM leukemia) greater than 100 µM. It also gave a TGI (A549 NSCLC) greater than 57 µM, a GI50 (MDA-MB-231 breast) of 2720 nM and a TGI (MDA-MB-231 breast) of 7.52 µM. The TGI (HCT-15 colon) was 19.6 µM, the TGI (SF-539 CNS) was 10.4 µM and the TGI (OVCAR-8 ovarian) was greater than 64 µM. For the same compound, the TGI (SF-295 CNS) was 51.2 µM, the TGI (NCI-H522 lung) was 21.3 µM and the TGI (SR leukemia) was 7.45 µM. It also gave a TGI (OVCAR-3 ovarian) greater than 64.4 µM, a GI50 (IGROV1 ovarian) of 9.37 µM and a TGI (IGROV1 ovarian) greater than 100 µM. It also gave a TGI (SNB-75 CNS) of 18.3 µM, a TGI (SK-MEL-28 melanoma) of 10.4 µM and a TGI (OVCAR-5 ovarian) greater than 68.6 µM. It also gave a TGI (LOX IMVI melanoma) of 8.19 µM, a TGI (DLD-1 colon) of 41.1 µM and a TGI (CAKI-1 renal) greater than 100 µM. It also gave a TGI (LXFL 529 NSCLC) of 30.7 µM, a TGI (XF 498 CNS) of 37.9 µM and a TGI (EKVX NSCLC) greater than 58.9 µM. It also gave a TGI (DMS 114 small cell lung) of 41 µM, a TGI (KM12 colon) greater than 51.8 µM and a TGI (HL-60(TB) leukemia) of 19.3 µM. For the same compound, the TGI (UO-31 renal) was 30.7 µM, the GI50 (PC-3 prostate) was 3.04 µM and the TGI (PC-3 prostate) was 57.2 µM. For the same compound, the TGI (SN12C renal) was greater than 71.6 µM, the GI50 (MCF7 breast) was 8.29 µM and the TGI (MCF7 breast) was greater than 100 µM. It also gave a GI50 (T-47D breast) of 35.2 µM, a TGI (T-47D breast) of 74.6 µM and a TGI (COLO 205 colon) of 31.8 µM. The GI50 (MDA-MB-435) was 2740 nM, the TGI (MDA-MB-435) was 9.38 µM and the TGI (U251 CNS) was 42.2 µM. The TGI (HCT-116 colon) was 12.9 µM, the TGI (NCI-H226 lung) was greater than 69.5 µM and the TGI (786-0 renal) was 33.8 µM. For the same compound, the TGI (M14 melanoma) was 10.5 µM, the TGI (TK-10 renal) was 49.2 µM and the TGI (OVCAR-4 ovarian) was greater than 61.6 µM. The TGI (RPMI-8226 leukemia) was greater than 20.1 µM, the GI50 (SW-620 colon) was 2820 nM and the TGI (SW-620 colon) was greater than 100 µM. For the same compound, the TGI (ACHN renal) was 64.6 µM, the GI50 (DU-145 prostate) was 7.83 µM and the TGI (DU-145 prostate) was greater than 100 µM. For the same compound, the TGI (MOLT-4 leukemia) was greater than 100 µM, the TGI (A498 renal) was greater than 56.8 µM and the TGI (SF-268 CNS) was greater than 36 µM. The TGI (SNB-19 CNS) was greater than 79.9 µM, the TGI (M19-MEL melanoma) was 41.4 µM and the TGI (KM20L2 colon) was 26.9 µM. The TGI (HOP-62 NSCLC) was greater than 63 µM, the GI50 (NCI/ADR-RES ovarian) was 83.6 µM and the TGI (NCI/ADR-RES ovarian) was greater than 100 µM. It also gave a TGI (SK-MEL-5 melanoma) of 23.5 µM, a TGI (RXF 393 renal) of 14.7 µM and a GI50 (SK-MEL-2 melanoma) of 25.8 µM. It also gave a TGI (SK-MEL-2 melanoma) of 62.7 µM, a TGI (RXF-631 renal) of 25.3 µM and a GI50 (HOP-92 NSCLC) of 1590 nM. It also gave a TGI (HOP-92 NSCLC) of 13.2 µM, a TGI (UACC-257 melanoma) of 29.5 µM and a TGI (K-562 leukemia) greater than 100 µM. The TGI (HT29 colon) was greater than 53.8 µM, the TGI (HCC-2998 colon) was 50.2 µM and the TGI (UACC-62 melanoma) was 32.5 µM. The TGI (SK-OV-3 ovarian) was 76.7 µM, the TGI (SNB-78 CNS) was 38 µM and the TGI (NCI-H23 lung) was greater than 57 µM.
`Cc1c2n(c3ccccc13)CC1CON(C)C21` (stereo not drawn) gave a TGI (MALME-3M melanoma) greater than 100 µM, a TGI (DMS 273 small cell lung) greater than 100 µM and a TGI (CCRF-CEM leukemia) greater than 100 µM. The TGI (SF-539 CNS) was greater than 100 µM, the TGI (NCI-H522 lung) was greater than 100 µM and the TGI (SR leukemia) was greater than 100 µM. For the same compound, the TGI (IGROV1 ovarian) was greater than 100 µM, the TGI (SNB-75 CNS) was greater than 100 µM and the TGI (SK-MEL-28 melanoma) was greater than 100 µM. It also gave a TGI (DLD-1 colon) greater than 100 µM, a TGI (CAKI-1 renal) greater than 100 µM and a TGI (LXFL 529 NSCLC) greater than 100 µM. For the same compound, the TGI (DMS 114 small cell lung) was greater than 100 µM, the TGI (HL-60(TB) leukemia) was greater than 100 µM and the TGI (UO-31 renal) was greater than 100 µM. For the same compound, the TGI (COLO 205 colon) was greater than 100 µM, the TGI (HCT-116 colon) was greater than 100 µM and the TGI (NCI-H226 lung) was greater than 100 µM. For the same compound, the TGI (786-0 renal) was greater than 100 µM, the TGI (M14 melanoma) was greater than 100 µM and the TGI (OVCAR-4 ovarian) was greater than 100 µM. It also gave a TGI (RPMI-8226 leukemia) greater than 100 µM, a TGI (MOLT-4 leukemia) greater than 100 µM and a TGI (SF-268 CNS) greater than 100 µM. The TGI (M19-MEL melanoma) was greater than 100 µM, the TGI (HOP-62 NSCLC) was greater than 100 µM and the TGI (SK-MEL-2 melanoma) was greater than 100 µM. The TGI (RXF-631 renal) was greater than 100 µM, the TGI (HOP-92 NSCLC) was greater than 100 µM and the TGI (K-562 leukemia) was greater than 100 µM. For the same compound, the TGI (HCC-2998 colon) was greater than 100 µM, the TGI (UACC-62 melanoma) was greater than 100 µM and the TGI (SK-OV-3 ovarian) was greater than 100 µM. It also gave a TGI (SNB-78 CNS) greater than 100 µM and a TGI (NCI-H23 lung) greater than 100 µM.
